Source: patent US12371454B2, “Cyclic peptide compound having Kras inhibitory action” (priority 2019, dated 2025)
Starred links: 1 amine or outer side, 2 acyl side, 3 side chain; linkers in the order of their positions; H or OH if unused. Positions of bridges follow the written chain, without caps; N, C: chain ends. Non-standard residues stand in square brackets, D forms with d. Residues, ends and D or L forms follow the SMILES beside them. *: point of attachment. hPhe(3-Cl-4-CF3) = N[C@@H](CCc1ccc(C(F)(F)F)c(Cl)c1)C(=O)O; NMePhe(4-CF3) = CN[C@@H](Cc1ccc(C(F)(F)F)cc1)C(=O)O; X25 = CN([C@@H](Cc1ccc(C(F)F)cc1)C(=O)[*:2])[*:1]; hPhe(4-CF3) = N[C@@H](CCc1ccc(C(F)(F)F)cc1)C(=O)O; 3Oxa8azabicyclo(3.2.1)octane = C1CC2COCC1N2*; NMePhe(4-Me) = CN[C@@H](Cc1ccc(C)cc1)C(=O)O; hPhe(4-Cl) = N[C@@H](CCc1ccc(Cl)cc1)C(=O)O; NMeAla(cPent) = CN[C@@H](CC1CCCC1)C(=O)O; NMeGly(cPent) = CN[C@H](C(=O)O)C1CCCC1; NMeCha = CN[C@@H](CC1CCCCC1)C(=O)O; NMeChg = CN[C@H](C(=O)O)C1CCCCC1; NMeI = CC[C@H](C)[C@H](NC)C(=O)O; N(CH2CH2)2CF2 = FC1(F)CCN(*)CC1; NMeD = CN[C@@H](CC(=O)O)C(=O)O; NMeL = CN[C@@H](CC(C)C)C(=O)O; NMeNva = CCC[C@H](NC)C(=O)O; NMeV = CN[C@H](C(=O)O)C(C)C; NMeAbu = CC[C@H](NC)C(=O)O; NMeS = CN[C@@H](CO)C(=O)O; Morpholide = C1CN(*)CCO1; NMeA = CN[C@@H](C)C(=O)O; Pyrrolidide = C1CCN(*)C1; Ac5c = NC1(C(=O)O)CCCC1; Aze = O=C(O)[C@@H]1CCN1; Ac4c = NC1(C(=O)O)CCC1; Sar = CNCC(=O)O; Propyl = CCC*

Assays:
[1] = target: T1, Kras and SOS1 (biotin-tagged human Kras loaded with GDP, His-tagged human SOS1) (Homo sapiens, UniProt P01116, G12D); experiment: Protein-protein interaction inhibition between Kras and SOS1 (KrasGl2D-SOS PPI) using AlphaScreen; assay type: binding; conditions: AlphaScreen; biotin-tagged human Kras loaded with GDP, His-tagged human SOS1; read-out: KRAS G12D-SOS PPI IC50
T1 construct: made in house; host or cells: E. coli (stated for Kras only)
In short: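 Donor beads (nickel) hold His-SOS1; acceptor beads (streptavidin) hold biotin-Kras bound to GDP. Signal measured at 520-620 nm following 680 nm excitation.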

[2] = system: Human pancreatic cancer cell line AsPC-1; experiment: Measurement of AsPC-1 cell growth inhibition (AsPC-1 CGI); assay type: cell-based; conditions: 96 h
In short: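 AsPC-1 cells in 15% FBS RPMI-1640 were exposed to test compound for 96 hours at 37° C, with CellTiter-Glo as endpoint.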

T1 sequence (P01116 1-188 isoform P01116-2 G12D): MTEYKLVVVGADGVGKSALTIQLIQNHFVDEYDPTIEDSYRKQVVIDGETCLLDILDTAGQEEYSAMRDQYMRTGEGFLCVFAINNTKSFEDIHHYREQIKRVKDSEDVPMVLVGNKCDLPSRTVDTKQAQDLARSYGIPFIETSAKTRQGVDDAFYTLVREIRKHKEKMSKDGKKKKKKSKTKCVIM

Structure (SMILES)	IC50 [1] [nM]	IC50 [2] [nM]
CC[C@H](C)[C@@H]1NC(=O)[C@H](CC(C)C)N(C)C(=O)C[C@@H](C(=O)N(C)C)N(C)C(=O)[C@H]([C@@H](C)CC)N(C)C(=O)C2(CCCC2)NC(=O)[C@H](Cc2ccc(C(F)F)cc2)N(C)C(=O)[C@H](CCc2ccc(C(F)(F)F)c(Cl)c2)NC(=O)CN(C)C(=O)[C@H](Cc2ccc(C)cc2)N(C)C(=O)[C@@H]2CCN2C(=O)[C@H](C)N(C)C1=O [Compound 1930] ([NMeL]I[NMeA][Aze][NMePhe(4-Me)][Sar][hPhe(3-Cl-4-CF3)][X25][Ac5c][NMeI][NMeD]-NMe2; lactam N-11)	3.6	20 to 50
CC[C@H](C)[C@@H]1NC(=O)[C@H](CC)N(C)C(=O)C[C@@H](C(=O)N2CCCC2)N(C)C(=O)[C@H](C2CCCCC2)N(C)C(=O)C2(CCCC2)NC(=O)[C@@H]2CCCN2C(=O)[C@H](CCc2ccc(C(F)(F)F)c(Cl)c2)NC(=O)CN(C)C(=O)[C@H](CC2CCCC2)N(C)C(=O)CN(C)C(=O)CN(C)C1=O [Compound 1931] ([NMeAbu]I[Sar][Sar][NMeAla(cPent)][Sar][hPhe(3-Cl-4-CF3)]P[Ac5c][NMeChg][NMeD]-Pyrrolidide; lactam N-11)	0.56	100 to 500
CC[C@H](C)[C@@H]1NC(=O)[C@H](CC(C)C)N(C)C(=O)C[C@@H](C(=O)N2C3CCC2COC3)N(C)C(=O)[C@H](C2CCCCC2)N(C)C(=O)C2(CCCC2)NC(=O)[C@@H]2CCCN2C(=O)[C@H](CCc2ccc(C(F)(F)F)c(Cl)c2)NC(=O)CN(C)C(=O)[C@H](Cc2ccc(C(F)(F)F)cc2)N(C)C(=O)CN(C)C(=O)CN(C)C1=O [Compound 1932] ([NMeL]I[Sar][Sar][NMePhe(4-CF3)][Sar][hPhe(3-Cl-4-CF3)]P[Ac5c][NMeChg][NMeD]-{3Oxa8azabicyclo(3.2.1)octane}; lactam N-11)	1.1	50 to 100
CCC[C@H]1C(=O)N[C@@H]([C@@H](C)CC)C(=O)N(C)CC(=O)N(C)CC(=O)N(C)[C@@H](CC2CCCCC2)C(=O)N(C)CC(=O)N[C@@H](CCc2ccc(C(F)(F)F)c(Cl)c2)C(=O)N2CCC[C@H]2C(=O)NC2(CCCC2)C(=O)N(C)[C@@H](C2CCCCC2)C(=O)N(C)[C@H](C(=O)N2C3CCC2COC3)CC(=O)N1C [Compound 1933] ([NMeNva]I[Sar][Sar][NMeCha][Sar][hPhe(3-Cl-4-CF3)]P[Ac5c][NMeChg][NMeD]-{3Oxa8azabicyclo(3.2.1)octane}; lactam N-11)	0.59	50 to 100
CC[C@H](C)[C@@H]1NC(=O)[C@H](CC(C)C)N(C)C(=O)C[C@@H](C(=O)N2CCOCC2)N(C)C(=O)[C@H](C(C)C)N(C)C(=O)C2(CCCC2)NC(=O)[C@@H]2CCCN2C(=O)[C@H](CCc2ccc(C(F)(F)F)c(Cl)c2)NC(=O)CN(C)C(=O)[C@H](CC2CCCCC2)N(C)C(=O)CN(C)C(=O)CN(C)C1=O [Compound 1934] ([NMeL]I[Sar][Sar][NMeCha][Sar][hPhe(3-Cl-4-CF3)]P[Ac5c][NMeV][NMeD]-Morpholide; lactam N-11)	1	100 to 500
CC[C@H](C)[C@@H]1NC(=O)[C@H](CC(C)C)N(C)C(=O)C[C@@H](C(=O)N2C3CCC2COC3)N(C)C(=O)[C@H](C2CCCCC2)N(C)C(=O)C2(CCC2)NC(=O)[C@@H]2CCCN2C(=O)[C@H](CCc2ccc(C(F)(F)F)c(Cl)c2)NC(=O)CN(C)C(=O)[C@H](CC2CCCCC2)N(C)C(=O)CN(C)C(=O)CN(C)C1=O [Compound 1936] ([NMeL]I[Sar][Sar][NMeCha][Sar][hPhe(3-Cl-4-CF3)]P[Ac4c][NMeChg][NMeD]-{3Oxa8azabicyclo(3.2.1)octane}; lactam N-11)	0.68	20 to 50
CC[C@H](C)[C@@H]1NC(=O)[C@H](CC(C)C)N(C)C(=O)C[C@@H](C(=O)N2C3CCC2COC3)N(C)C(=O)[C@H]([C@@H](C)CC)N(C)C(=O)C2(CCCC2)NC(=O)[C@@H]2CCCN2C(=O)[C@H](CCc2ccc(C(F)(F)F)c(Cl)c2)NC(=O)CN(C)C(=O)[C@H](CC2CCCCC2)N(C)C(=O)CN(C)C(=O)CN(C)C1=O [Compound 1938] ([NMeL]I[Sar][Sar][NMeCha][Sar][hPhe(3-Cl-4-CF3)]P[Ac5c][NMeI][NMeD]-{3Oxa8azabicyclo(3.2.1)octane}; lactam N-11)	0.76	20 to 50
CC[C@H](C)[C@@H]1NC(=O)[C@H](CC(C)C)N(C)C(=O)C[C@@H](C(=O)N2CCCC2)N(C)C(=O)[C@H](C2CCCCC2)N(C)C(=O)C2(CCCC2)NC(=O)[C@@H]2CCCN2C(=O)[C@H](CCc2ccc(C(F)(F)F)cc2)NC(=O)CN(C)C(=O)[C@H](CC2CCCCC2)N(C)C(=O)CN(C)C(=O)CN(C)C1=O [Compound 1939] ([NMeL]I[Sar][Sar][NMeCha][Sar][hPhe(4-CF3)]P[Ac5c][NMeChg][NMeD]-Pyrrolidide; lactam N-11)	0.71	100 to 500
CC[C@H](C)[C@@H]1NC(=O)[C@H](CC(C)C)N(C)C(=O)C[C@@H](C(=O)N2C3CCC2COC3)N(C)C(=O)[C@H](C2CCCCC2)N(C)C(=O)C2(CCCC2)NC(=O)[C@@H]2CCCN2C(=O)[C@H](CCc2ccc(C(F)(F)F)cc2)NC(=O)CN(C)C(=O)[C@H](CC2CCCCC2)N(C)C(=O)CN(C)C(=O)CN(C)C1=O [Compound 1940] ([NMeL]I[Sar][Sar][NMeCha][Sar][hPhe(4-CF3)]P[Ac5c][NMeChg][NMeD]-{3Oxa8azabicyclo(3.2.1)octane}; lactam N-11)	1.6	100 to 500
CC[C@H](C)[C@@H]1NC(=O)[C@H](CC(C)C)N(C)C(=O)C[C@@H](C(=O)N2CCOCC2)N(C)C(=O)[C@H](C2CCCCC2)N(C)C(=O)C2(CCCC2)NC(=O)[C@@H]2CCCN2C(=O)[C@H](CCc2ccc(Cl)cc2)NC(=O)CN(C)C(=O)[C@H](CC2CCCCC2)N(C)C(=O)CN(C)C(=O)CN(C)C1=O [Compound 1941] ([NMeL]I[Sar][Sar][NMeCha][Sar][hPhe(4-Cl)]P[Ac5c][NMeChg][NMeD]-Morpholide; lactam N-11)	1.5	50 to 100
CC[C@H](C)[C@@H]1NC(=O)[C@H](CC(C)C)N(C)C(=O)C[C@@H](C(=O)N2CCOCC2)N(C)C(=O)[C@H](C2CCCCC2)N(C)C(=O)C2(CCCC2)NC(=O)[C@@H]2CCCN2C(=O)[C@H](CCc2ccc(C(F)(F)F)cc2)NC(=O)CN(C)C(=O)[C@H](CC2CCCCC2)N(C)C(=O)CN(C)C(=O)CN(C)C1=O [Compound 1947] ([NMeL]I[Sar][Sar][NMeCha][Sar][hPhe(4-CF3)]P[Ac5c][NMeChg][NMeD]-Morpholide; lactam N-11)	1.2	50 to 100
CC[C@H](C)[C@@H]1NC(=O)[C@H](CC(C)C)N(C)C(=O)C[C@@H](C(=O)N2CCOCC2)N(C)C(=O)[C@H](C2CCCCC2)N(C)C(=O)C2(CCCC2)NC(=O)[C@@H]2CCCN2C(=O)[C@H](CCc2ccc(C(F)(F)F)c(Cl)c2)NC(=O)CN(C)C(=O)[C@H](Cc2ccc(C(F)(F)F)cc2)N(C)C(=O)CN(C)C(=O)CN(C)C1=O [Compound 1948] ([NMeL]I[Sar][Sar][NMePhe(4-CF3)][Sar][hPhe(3-Cl-4-CF3)]P[Ac5c][NMeChg][NMeD]-Morpholide; lactam N-11)	0.54	20 to 50
CCCOC[C@H]1C(=O)N(C)CC(=O)N[C@@H](CCc2ccc(C(F)(F)F)c(Cl)c2)C(=O)N2CCC[C@H]2C(=O)NC2(CCCC2)C(=O)N(C)[C@@H](C2CCCCC2)C(=O)N(C)[C@H](C(=O)N2CCOCC2)CC(=O)N(C)[C@@H](CCC)C(=O)N[C@@H]([C@@H](C)CC)C(=O)N(C)CC(=O)N(C)CC(=O)N1C [Compound 1949] ([NMeNva]I[Sar][Sar][NMeS](Propyl)[Sar][hPhe(3-Cl-4-CF3)]P[Ac5c][NMeChg][NMeD]-Morpholide; lactam N-11)	0.6	100 to 500
CC[C@H](C)[C@@H]1NC(=O)[C@H](CC(C)C)N(C)C(=O)C[C@@H](C(=O)N2C3CCC2COC3)N(C)C(=O)[C@H](C2CCCCC2)N(C)C(=O)C2(CCCC2)NC(=O)[C@@H]2CCCN2C(=O)[C@H](CCc2ccc(Cl)cc2)NC(=O)CN(C)C(=O)[C@H](CC2CCCCC2)N(C)C(=O)CN(C)C(=O)CN(C)C1=O [Compound 1950] ([NMeL]I[Sar][Sar][NMeCha][Sar][hPhe(4-Cl)]P[Ac5c][NMeChg][NMeD]-{3Oxa8azabicyclo(3.2.1)octane}; lactam N-11)	2.8	20 to 50
CC[C@H](C)[C@@H]1NC(=O)[C@H](CC(C)C)N(C)C(=O)C[C@@H](C(=O)N2C3CCC2COC3)N(C)C(=O)[C@H](C(C)C)N(C)C(=O)C2(CCCC2)NC(=O)[C@@H]2CCCN2C(=O)[C@H](CCc2ccc(C(F)(F)F)c(Cl)c2)NC(=O)CN(C)C(=O)[C@H](CC2CCCCC2)N(C)C(=O)CN(C)C(=O)CN(C)C1=O [Compound 1954] ([NMeL]I[Sar][Sar][NMeCha][Sar][hPhe(3-Cl-4-CF3)]P[Ac5c][NMeV][NMeD]-{3Oxa8azabicyclo(3.2.1)octane}; lactam N-11)	2.3	100 to 500
CC[C@H](C)[C@@H]1NC(=O)[C@H](CC(C)C)N(C)C(=O)C[C@@H](C(=O)N(C)C)N(C)C(=O)[C@H](C2CCCC2)N(C)C(=O)C2(CCCC2)NC(=O)[C@H](CC(=O)N2CCC(F)(F)CC2)N(C)C(=O)[C@H](CCc2ccc(C(F)(F)F)c(Cl)c2)NC(=O)CN(C)C(=O)[C@H](CC2CCCCC2)N(C)C(=O)[C@@H]2CCN2C(=O)[C@H](C)N(C)C1=O [Compound 1955] ([NMeL]I[NMeA][Aze][NMeCha][Sar][hPhe(3-Cl-4-CF3)][NMeD](N(CH2CH2)2CF2)[Ac5c][NMeGly(cPent)][NMeD]-NMe2; lactam N-11)	1.5	100 to 500
